Measurements published in patent publication US20260223593A1, “Organic Compound, Light-Emitting Device, Display Apparatus, And Electronic Appliance” (Semiconductor Energy Laboratory Co., Ltd., priority 2023, published 2026).
Converted amounts (≈) assume the structure as drawn.

Assay: Solubility test of Ph3TP-hpp by LC/MS analysis (water solubility)
Type: physicochemical
Experimental: In the LC/MS analysis, LC (liquid chromatography) separation was carried out with Acquity UPLC (registered trademark) produced by Waters Corporation, and MS analysis (mass spectrometry) was carried out with Xevo G2 Tof MS produced by Waters Corporation. Acquity UPLC BEH C8 (2.1×100 mm, 1.7 μm) was used as a column for the LC separation. Acetonitrile was used for Mobile Phase A and a 0.1% aqueous solution of formic acid was used for Mobile Phase B. The injection amount of the sample was 5.0 μL. Note that in the analysis, the wavelength of a photodiode array detector was set to 246 nm±1 nm.
In a 5-mL sample bottle, 1 mg of Ph3TP-hpp was put and 2 mL of toluene was added thereto, and then this mixture was irradiated with ultrasonic waves for five minutes. After it was confirmed that the solid was completely dissolved, this solution was diluted by 2.5 times with acetonitrile, whereby the concentration of the solution was adjusted to 200 mg/L. This solution was diluted with acetonitrile, whereby solutions with concentrations of 20 mg/L, 10 mg/L, and 4 mg/L were prepared. The prepared solutions were subjected to LC/MS analysis, and the peak area values derived from Ph3TP-hpp, which were obtained at the respective solution concentrations, were used to form calibration curves.
Next, the water solubility of Ph3TP-hpp was measured.
In a 5-mL sample bottle, 1 mg of Ph3TP-hpp was put and 1 mL of water was added thereto, and then this mixture was irradiated with ultrasonic waves for five minutes. This mixture was filtered through a membrane filter to remove the solid, and the obtained filtrate was diluted by five times with acetonitrile. The obtained solution was subjected to LC/MS analysis.

solubility of Ph3TP-hpp dissolved in 1 mL of water (1 mg in 1 mL of water, ultrasonic waves five minutes, membrane filtered, filtrate by LC/MS against calibration curve): 0.031 mg | solubility at 5 min (thermodynamic from solid, water, from 0.031 mg in 1 mL, read-out: weight fraction of the water solubility): 31 µg/mL (≈ 52 µM) | water solubility (in words) (water, LC/MS solubility test): low water solubility
SMILES: c1ccc(-c2cc(-c3cccc(N4CCCN5CCCN=C54)c3)c(-c3ccccc3)c(-c3ccccc3)c2-c2ccccc2)cc1 [Ph3TP-hpp, 1-(3′,4′,5′-triphenyl-1,1′:2′,1″-terphenyl-3-yl)-1,3,4,6,7,8-hexahydro-2H-pyrimide[1,2-a]pyrimidine]
